Assays:
T-bet mRNA = experiment: Real-time PCR of T-bet mRNA in EL-4 T lymphoma cells; assay type: cell-based, mouse; settings: for Expression level of T-bet mRNA: PMA + cAMP stimulated EL-4 cells, corrected to HPRT
Procedure: (§1) Then, at a density of 5×10^5 counts/ml, the T lymphoma cells were bred in a six-well culture dish, and at the 0th minute, brazilin of different concentrations (0.3, 1, 3, 10, or 30 micromole (μM)) was added into the cell culture solution at an amount of 1 μl/ml-cell culture solution. Then, the cells were put into the incubator to be cultured therein. 30 minutes later, at an amount of 1 μl/ml-cell culture solution, 5 μg/ml PMA and cAMP at a 250 mmol concentration were added to the cell culture solution to stimulate the expression of IL-4 and IL-5 of the T lymphoma cells. During the process of cell culture, the trypan blue exclusion assay was employed to observe effect of the brazilin on the cell viability, results of which are shown in Table 1 and FIG. 1.
(§2) Expression of mRNA of IL-4, IL-5, GATA-3, c-maf, and T-bet were analyzed in a quantitative way through real-time polymerase chain reaction (PCR) by extracting RNA in the cells obtained in Experiment A (using an RNA purifying kit), converting the RNA into cDNA through reverse transcription, and using an ABI PRISM 7700 sequence detector (Applied Biosystems, Foster City, Calif., America) to analyze the gene expression of mRNA. The PCR was carried out under the following conditions: 50° C., 2 minutes; 95° C., 10 minutes; 60° C., 1 minute; then repeating this cycle forty times. A threshold cycle (or referred to as Ct) was used to represent the expression level of each gene, and an expression level of hypoxanthine-guanine phosphoribosy transferase (HPRT) genes of the endogenous control group was used for correction of the expression level of mRNA.

c-maf mRNA = experiment: Real-time PCR of c-maf mRNA in EL-4 T lymphoma cells; assay type: cell-based, mouse; settings: for Expression level of c-maf mRNA: PMA + cAMP stimulated EL-4 cells, corrected to HPRT
Procedure: as §1, §2

IL-4 = experiment: ELISA of IL-4 in bronochial alveolar lavage fluid, mice with asthma (OVA); assay type: in vivo, BALB/c mice; settings: for IL-4 concentration (pico-gram/ml): i.p. or i.t., OVA-sensitized BALB/c mice
Procedure: (§3) In Example 2, mice with asthma were used to conduct in vivo experiments, and ovalbumin (OVA) was used as an allergen.
(§4) The mice were sensitized (or challenged) according to the steps shown in FIG. 9 (see Lee et al., Lentiviral-mediated GATA-3 RNAi decreases allergic airway inflammation and hyperresponsiveness. Molecular Therapy, 2008; 16:60-65, which is incorporated herein in its entirety by reference). First, 50 μg OVA (using 2 mg alumina (Alum, Alumlmuject, Pierce Chemical, Rockford, Ill., USA) as an adjuvant) was injected into six to eight-week-old BALB/c female mice (from National Laboratory Animal Center, Taiwan) by intraperitoneal injection (i.p.). At 0th, 14th, and 28th day, the mice were injected with OVA at the same dosage. Before the administration of OVA at the forty-first and the forty-second days, different dosages of brazilin (high dose: 430 μg/mice; low dose: 43 μg/mice) were administrated to the mice by intraperitoneal injection (i.p.) or intratracheal instillation (i.t.). During the fortieth to the forty-second days, 100 μg OVA was dissolved in 40 μl PBS, and was administrated to the mice by intranasal instillation (i.n.) (once everyday, for three days). At the forty-third day, airway hyperresponsiveness of the mice was observed. […]
(§5) In Experiment D, after 24 hours from the last administration of OVA into the noses of the mice, the mice were sacrificed, and the blood was collected from the orbital cavities of the mice. […] Cells obtained after the centrifugation were re-suspended in a 1 ml HBSS buffer solution, and the total cell number was counted with a hemocytometer.
(§6) The bronochial alveolar lavage fluid collected in Experiment E was centrifuged at 4° C. and with a revolution speed of 400 g for 10 minutes. After the supernatant was collected, the expression of eotaxin, IL-4, IL-5, and IFN-γ was analyzed with an ELISA kit (R&D Systems, Inc., USA). […]

mice with asthma = experiment: Airway (pulmonary) resistance determination, invasive body plethysmography with methacholine; assay type: in vivo, BALB/c mice; settings: for pulmonary resistance Rrs (cm H2O/ml): OVA-sensitized BALB/c mice
Procedure: as §3
The mice were sensitized (or challenged) according to the steps shown in FIG. 9 (see Lee et al., Lentiviral-mediated GATA-3 RNAi decreases allergic airway inflammation and hyperresponsiveness. Molecular Therapy, 2008; 16:60-65, which is incorporated herein in its entirety by reference). First, 50 μg OVA (using 2 mg alumina (Alum, Alumlmuject, Pierce Chemical, Rockford, Ill., USA) as an adjuvant) was injected into six to eight-week-old BALB/c female mice (from National Laboratory Animal Center, Taiwan) by intraperitoneal injection (i.p.). At 0th, 14th, and 28th day, the mice were injected with OVA at the same dosage. Before the administration of OVA at the forty-first and the forty-second days, different dosages of brazilin (high dose: 430 μg/mice; low dose: 43 μg/mice) were administrated to the mice by intraperitoneal injection (i.p.) or intratracheal instillation (i.t.). During the fortieth to the forty-second days, 100 μg OVA was dissolved in 40 μl PBS, and was administrated to the mice by intranasal instillation (i.n.) (once everyday, for three days). At the forty-third day, airway hyperresponsiveness of the mice was observed. At the forty-sixth day, the mice were sacrificed and used to conduct the following Experiments E to G During the above procedure, it was observed if any toxicity response arises after the administration of brazilin to the mice. In this experiment, the mice administrated with OVA were used as a positive control, and the mice not administrated with OVA were used as a negative control.
Airway (pulmonary) resistance determination was carried out by conducting invasive body plethysmography according to the Glaab's method (see Glaab et al., Repetitive measurements of pulmonary mechanics to inhaled cholinergic challenge in spontaneously breathing mice. J Appl Physiol, 2004; 97:1104-1111, which is incorporated herein in its entirety by reference). In this method, the increase of pulmonary resistance of mice administrated with methacholine is observed.
First, BALB/c mice were anesthetized with 70 to 90 mg/kg-body weight of pentobarbital sodium (Sigma), and the trachea of the mice were cut to generate a bore, and the mice were subjected to external ventilation (150 breaths/minute) with a ventilator (Harvard Rodent Ventilator, model 683, Southnatick, Mass., USA) controlled by a computer to maintain the tidal volume at 0.3 ml and the terminal expiring positive pressure at 3 to 4 cm-H2O. A PE-50 pipeline was inserted into the gullets and reached to the chest position of the mice, and the pipeline was connected to a pressure transducer (LDS GOULD, Valley View, Ohio, USA), and the pressure, air flow rate, and the variation of air capacity in the lungs of the mice were recorded. Software (Model PNM-PCT100W, LDS PONEMAH Physiology Platform, LDS GOULD) was used to analyze the airway resistance. An atomizer was used to generate methacholine spray, which was then administrated to the mice via the ventilator. The data was obtained by deducting the pulmonary resistance (0.45 cm H2O.s.ml^−1) gained by the pipeline inserted into the trachea of the mice, wherein pulmonary resistance RL ratio=RL after methacholine nebulization/RL after PBS nebulization.

IL-5 = experiment: ELISA of IL-5 in bronochial alveolar lavage fluid, mice with asthma (OVA); assay type: in vivo, BALB/c mice; settings: for IL-5 concentration (pico-gram/ml): i.p. or i.t., OVA-sensitized BALB/c mice
Procedure: as §3, §4, §5, §6

Oc1ccc2c(c1)OC[C@]1(O)Cc3cc(O)c(O)cc3[C@H]21 [brazilin]
expression of mRNA of transcription factor T-bet (T-bet mRNA; EL-4 cells, result in words): did not inhibit
Expression level of T-bet mRNA (T-bet mRNA; brazilin 0.3 μM): 1.073 ± 0.1762
Expression level of T-bet mRNA (T-bet mRNA; brazilin 1 μM): 1.036 ± 0.1666
Expression level of T-bet mRNA (T-bet mRNA; brazilin 3 μM): 1.052 ± 0.09226
Expression level of T-bet mRNA (T-bet mRNA; brazilin 10 μM): 1.068 ± 0.1171
Expression level of T-bet mRNA (T-bet mRNA; brazilin 30 μM): 1.054 ± 0.05147
expression of mRNA of transcription factor c-maf (c-maf mRNA; EL-4 cells, result in words): inhibited
Expression level of c-maf mRNA (c-maf mRNA; brazilin 0.3 μM): 3.388 ± 0.2410
Expression level of c-maf mRNA (c-maf mRNA; brazilin 1 μM): 3.318 ± 0.1177
Expression level of c-maf mRNA (c-maf mRNA; brazilin 3 μM): 2.846 ± 0.2632
Expression level of c-maf mRNA (c-maf mRNA; brazilin 10 μM): 1.826 ± 0.6278
Expression level of c-maf mRNA (c-maf mRNA; brazilin 30 μM): 1.302 ± 0.1868
production of IL-4 cytokine (IL-4; BALB/c mice, result in words): inhibited
IL-4 concentration (pico-gram/ml) (IL-4; High dose (430 μg/mice)): 23.01 ± 2.327 pico-gram/ml
IL-4 concentration (pico-gram/ml) (IL-4; Low dose (43 μg/mice)): 36.76 ± 5.490 pico-gram/ml
pulmonary resistance Rrs (cm H2O/ml) (mice with asthma; methacholine 3.125 mg/ml, High dose (430 μg/mice)): 2.535 ± 0.1251 cm H2O/ml
pulmonary resistance Rrs (cm H2O/ml) (mice with asthma; methacholine 3.125 mg/ml, Low dose (43 μg/mice)): 2.237 ± 0.1567 cm H2O/ml
pulmonary resistance Rrs (cm H2O/ml) (mice with asthma; methacholine 6.25 mg/ml, High dose (430 μg/mice)): 2.680 ± 0.1676 cm H2O/ml
pulmonary resistance Rrs (cm H2O/ml) (mice with asthma; methacholine 6.25 mg/ml, Low dose (43 μg/mice)): 2.206 ± 0.0665 cm H2O/ml
pulmonary resistance Rrs (cm H2O/ml) (mice with asthma; methacholine 12.5 mg/ml, High dose (430 μg/mice)): 3.247 ± 0.1368 cm H2O/ml
pulmonary resistance Rrs (cm H2O/ml) (mice with asthma; methacholine 12.5 mg/ml, Low dose (43 μg/mice)): 2.432 ± 0.1259 cm H2O/ml
pulmonary resistance Rrs (cm H2O/ml) (mice with asthma; methacholine 25 mg/ml, High dose (430 μg/mice)): 3.691 ± 0.1542 cm H2O/ml
pulmonary resistance Rrs (cm H2O/ml) (mice with asthma; methacholine 25 mg/ml, Low dose (43 μg/mice)): 2.869 ± 0.1831 cm H2O/ml
airway resistance of the mice (mice with asthma; methacholine challenge, BALB/c mice, result in words): reduced
production of IL-5 cytokine (IL-5; BALB/c mice, result in words): inhibited
IL-5 concentration (pico-gram/ml) (IL-5; High dose (430 μg/mice)): 52.10 ± 6.223 pico-gram/ml
IL-5 concentration (pico-gram/ml) (IL-5; Low dose (43 μg/mice)): 70.65 ± 6.510 pico-gram/ml
